Measured values taken from patent US8575203B2, “Chemical compounds” (Boehringer Ingelheim International GmbH, priority 2010, dated 2013).

Molecular target: Recombinant human PDK1 enzyme (aa 52-556) (Homo sapiens (Human), UniProt O15530)
Assay: PDK1 kinase assay
Assay type: biochemical
Settings: in vitro kinase assay, His6-PDK1 (aa 52-556), PDKtide, P33-ATP
Method: The activity of the compounds according to the invention on the kinase PDK1 which inhibits the signal transduction pathway is determined in an in vitro kinase assay with recombinantly prepared protein:
Recombinant human PDK1 enzyme (aa 52-556) linked at its N-terminal end to His6 is isolated from baculovirus-infected insect cells. Purified enzyme may be obtained for example from the University of Dundee, Scotland. The following components are combined in a well of a 96-well round-based dish (Greiner bio-one, No. 650101): • 15 μL of compound to be tested in varying concentrations (e.g. starting at 10 μM, and diluted in steps of 1:5) in APT buffer (50 mM Tris/Cl pH 7.5; 0.05% β-mercaptoethanol; 10 mM Mg-acetate; 0.0166% Tween 20; 3.33% DMSO) • 15 μL His6-PDK1 (aa 52-556) 3.33 ng/well) and PDKtide ([…]), synthesised by Pepceuticals Limited, Nottingham, United Kingdom; 25 μM final concentration); His6-PDK1 and PDKtide are together diluted accordingly in assay buffer (50 mM tris pH 7.5, 0.05% β-mercaptoethanol, 10 mM Mg-acetate); PDKtide is present in this mixture as an 83.3 μM solution. These 30 μl are routinely incubated for 30 min at RT. • 20 μL ATP solution (25 μM ATP with 1.0 μCi/well gamma-P33-ATP). The final concentration of Tween 20 is 0.005%.
The reaction is started by adding the ATP solution and the mixture is incubated for 90 min at RT. At the start of the reaction the dishes are shaken gently. The reaction is stopped by the addition of 50 μL/well of 500 mM phosphoric acid (H3PO4) and incubated for about 20 min at RT. The precipitate is transferred by harvesting onto filter plates (96-well microtitre filter plate: UniFilter GF/C; Perkin Elmer; No. 6005174), then washed 6 times with 50 mM H3PO4 and dried at 60° C. Then the plate is stuck down with sealing tape, 25 μL/well of scintillation solution (Microscint 0; Perkin Elmer; No. 6013611) are added and the amount of P33 precipitated is measured using the Wallac Betacounter. The measured data are evaluated using Graphpad Prism software.

Chain of Recombinant human PDK1 enzyme (aa 52-556) (O15530 52-556): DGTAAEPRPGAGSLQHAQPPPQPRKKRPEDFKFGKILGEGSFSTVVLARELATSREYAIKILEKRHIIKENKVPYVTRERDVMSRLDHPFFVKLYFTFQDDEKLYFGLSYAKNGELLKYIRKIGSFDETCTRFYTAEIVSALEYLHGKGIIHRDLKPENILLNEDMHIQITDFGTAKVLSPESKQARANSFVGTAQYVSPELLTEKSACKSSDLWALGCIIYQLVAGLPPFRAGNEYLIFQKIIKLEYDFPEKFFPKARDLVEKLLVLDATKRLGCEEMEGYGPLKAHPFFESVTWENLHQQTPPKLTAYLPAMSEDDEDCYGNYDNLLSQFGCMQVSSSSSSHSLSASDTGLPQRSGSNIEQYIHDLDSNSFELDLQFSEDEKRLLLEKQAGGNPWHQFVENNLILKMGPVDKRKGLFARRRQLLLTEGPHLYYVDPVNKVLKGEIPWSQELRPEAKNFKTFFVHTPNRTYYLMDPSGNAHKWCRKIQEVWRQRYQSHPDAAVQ

Structure (SMILES) | IC50
COc1ncnc2ccc(C#CCNC(=O)c3cncn(Cc4ccc(F)c(F)c4)c3=O)cc12 [I-2] | 37 nM
CNc1ncnc2ccc(C#CCNC(=O)c3cccn(Cc4ccc(F)c(F)c4)c3=O)c(C)c12 [I-3] | 8 nM
CNc1ncnc2cc(Cl)c(C#CCNC(=O)c3cncn(Cc4ccc(F)c(F)c4)c3=O)cc12 [I-5] | 229 nM
CNc1ncnc2cc(F)c(C#CCNC(=O)c3c(C)n(C)n(Cc4ccc(F)c(F)c4)c3=O)cc12 [I-6] | 68 nM
CCOc1ncnc2ccc(C#CCNC(=O)c3cncn(Cc4ccc(F)c(F)c4)c3=O)cc12 [I-7] | 94 nM
CN(C)CCCOc1ncnc2ccc(C#CCNC(=O)c3cncn(Cc4ccc(F)c(F)c4)c3=O)cc12 [I-8] | 103 nM
O=C(NCC#Cc1ccc2ncc(NC3CCN(CCO)CC3)nc2c1)c1cncn(Cc2ccc(F)c(F)c2)c1=O [I-9] | 3 nM
CN(C)CCCNc1cnc2ccc(C#CCNC(=O)c3cncn(Cc4ccc(F)c(F)c4)c3=O)cc2n1 [I-10] | 11 nM
CN(C)CCN(C)c1cnc2ccc(C#CCNC(=O)c3cncn(Cc4ccc(F)c(F)c4)c3=O)cc2n1 [I-11] | 88 nM
CN(C)CCNc1cnc2ccc(C#CCNC(=O)c3cncn(Cc4ccc(F)c(F)c4)c3=O)cc2n1 [I-12] | 35 nM
CN(C)CCCN(C)c1cnc2ccc(C#CCNC(=O)c3cncn(Cc4ccc(F)c(F)c4)c3=O)cc2n1 [I-13] | 34 nM
CNc1cnc2ccc(C#CCNC(=O)c3cncn(Cc4ccc(F)c(F)c4)c3=O)cc2n1 [I-14] | 27 nM
CN(C)c1cnc2ccc(C#CCNC(=O)c3cncn(Cc4ccc(F)c(F)c4)c3=O)cc2n1 [I-15] | 68 nM
CN1CCC(Nc2cnc3ccc(C#CCNC(=O)c4cncn(Cc5ccc(F)c(F)c5)c4=O)cc3n2)C1 (stereo not drawn) [I-16] | 33 nM
CN(C)CCCOc1cnc2ccc(C#CCNC(=O)c3cncn(Cc4ccc(F)c(F)c4)c3=O)cc2n1 [I-17] | 95 nM
CN(C)CCSc1cnc2ccc(C#CCNC(=O)c3cncn(Cc4ccc(F)c(F)c4)c3=O)cc2n1 [I-18] | 17 nM
CN1CCC(Nc2cnc3ccc(C#CCNC(=O)c4cncn(Cc5ccc(F)c(F)c5)c4=O)cc3n2)CC1 [I-19] | 4 nM
CN1CCCC(Nc2cnc3ccc(C#CCNC(=O)c4cncn(Cc5ccc(F)c(F)c5)c4=O)cc3n2)C1 (stereo not drawn) [I-21] | 149 nM
CCN1CCC(Nc2cnc3ccc(C#CCNC(=O)c4cncn(Cc5ccc(F)c(F)c5)c4=O)cc3n2)CC1 [I-22] | 6 nM
O=C(NCC#Cc1ccc2ncc(NC3CCN(C4CC4)CC3)nc2c1)c1cncn(Cc2ccc(F)c(F)c2)c1=O [I-23] | 8 nM
CN1CCN(c2cnc3ccc(C#CCNC(=O)c4cncn(Cc5ccc(F)c(F)c5)c4=O)cc3n2)CC1 [I-24] | 117 nM

Structure (SMILES) | IC50
CN(C)CC(C)(C)CNc1cnc2ccc(C#CCNC(=O)c3cncn(Cc4ccc(F)c(F)c4)c3=O)cc2n1 [I-25] | 42 nM
O=C(NCC#Cc1ccc2ncc(NC3CCCCC3)nc2c1)c1cncn(Cc2ccc(F)c(F)c2)c1=O [I-26] | 588 nM
O=C(NCC#Cc1ccc2ncc(NC3CCNCC3)nc2c1)c1cncn(Cc2ccc(F)c(F)c2)c1=O [I-27] | 3 nM
CN1CCC(N(C)c2cnc3ccc(C#CCNC(=O)c4cncn(Cc5ccc(F)c(F)c5)c4=O)cc3n2)CC1 [I-28] | 21 nM
O=C(NCC#Cc1ccc2ncc(NC3CC(N4CCCC4)C3)nc2c1)c1cncn(Cc2ccc(F)c(F)c2)c1=O (stereo not drawn) [I-29] | 41 nM
C[C@H](c1ccc(F)c(F)c1)n1cccc(C(=O)NCC#Cc2ccc3ncc(NC4CCN(C)CC4)nc3c2)c1=O [I-30] | 2 nM
CN1CCC(Nc2cnc3ccc(C#CCNC(=O)c4cccn(Cc5ccc(F)c(F)c5)c4=O)cc3n2)CC1 [I-31] | 5 nM
CN1CCC(Nc2cnc3ccc(C#CCNC(=O)c4cccn([C@H](CO)c5ccccc5)c4=O)cc3n2)CC1 [I-32] | 8 nM
N[C@H]1CC[C@@H](Nc2cnc3ccc(C#CCNC(=O)c4cncn(Cc5ccc(F)c(F)c5)c4=O)cc3n2)CC1 [I-33] | 40 nM
N[C@H]1CC[C@H](Nc2cnc3ccc(C#CCNC(=O)c4cncn(Cc5ccc(F)c(F)c5)c4=O)cc3n2)CC1 [I-34] | 3 nM
CC(C)Nc1cnc2ccc(C#CCNC(=O)c3cncn(Cc4ccc(F)c(F)c4)c3=O)cc2n1 [I-35] | 21 nM
CN1CCN(Nc2cnc3ccc(C#CCNC(=O)c4cncn(Cc5ccc(F)c(F)c5)c4=O)cc3n2)CC1 [I-36] | 87 nM
COCCN1CCC(Nc2cnc3ccc(C#CCNC(=O)c4cncn(Cc5ccc(F)c(F)c5)c4=O)cc3n2)CC1 [I-37] | 5 nM
CN1CCC(Oc2cnc3ccc(C#CCNC(=O)c4cncn(Cc5ccc(F)c(F)c5)c4=O)cc3n2)CC1 [I-38] | 56 nM
O=C(NCC#Cc1ccc2ncc(N[C@H]3CC[C@H](O)CC3)nc2c1)c1cncn(Cc2ccc(F)c(F)c2)c1=O [I-39] | 21 nM
O=C(NCC#Cc1ccc2ncc(N[C@H]3CC[C@H](N4CCOCC4)CC3)nc2c1)c1cncn(Cc2ccc(F)c(F)c2)c1=O [I-40] | 2 nM
CN1CCC(Nc2cnc3ccc(C#CCNC(=O)c4cccn([C@@H](CO)c5ccc(F)c(F)c5)c4=O)cc3n2)CC1 [I-41] | 3 nM
O=C(NCC#Cc1ccc2ncc(N[C@H]3CC[C@H](N4CCN(CC5CC5)CC4)CC3)nc2c1)c1cncn(Cc2ccc(F)c(F)c2)c1=O [I-42] | 3 nM
CN(C)[C@H]1CC[C@H](Nc2cnc3ccc(C#CCNC(=O)c4cncn(Cc5ccc(F)c(F)c5)c4=O)cc3n2)CC1 [I-43] | 5 nM
NC1CCC(Nc2cnc3ccc(C#CCNC(=O)c4cncn(Cc5ccc(F)c(F)c5)c4=O)cc3n2)C1 (stereo not drawn) [I-44] | 11 nM
CCN1CC[C@@H](Nc2cnc3ccc(C#CCNC(=O)c4cncn(Cc5ccc(F)c(F)c5)c4=O)cc3n2)[C@@H](F)C1 [I-45] | 8 nM

Structure (SMILES) | IC50
CCN1CCC(Nc2cnc3ccc(C#CCNC(=O)c4cccn(Cc5ccc(F)c(F)c5)c4=O)cc3n2)CC1 [I-46] | 7 nM
CCN1CC[C@H](Nc2cnc3ccc(C#CCNC(=O)c4cncn(Cc5ccc(F)c(F)c5)c4=O)cc3n2)[C@H](F)C1 [I-47] | 4 nM
COCCN1CCC(Nc2cnc3ccc(C#CCNC(=O)c4cccn([C@@H](CO)c5ccc(F)c(F)c5)c4=O)cc3n2)CC1 [I-48] | 3 nM
COCCN1CCC(Nc2cnc3ccc(C#CCNC(=O)c4cccn(Cc5ccc(F)c(F)c5)c4=O)cc3n2)CC1 [I-49] | 9 nM
CCN1CCC(Nc2cnc3ccc(C#CCNC(=O)c4cccn([C@@H](CO)c5ccc(F)c(F)c5)c4=O)cc3n2)CC1 [I-50] | 1 nM
COCCN1CCC(Nc2cnc3ccc(C#CCNC(=O)c4cccn([C@@H](C)c5ccc(F)c(F)c5)c4=O)cc3n2)CC1 [I-52] | 4 nM
COCCN1CCC(Nc2cnc3ccc(C#CCNC(=O)c4ccnn(Cc5ccc(F)c(F)c5)c4=O)cc3n2)CC1 [I-53] | 8 nM
O=C(NCC#Cc1ccc2ncc(NC3CCN(C4COC4)CC3)nc2c1)c1ccnn(Cc2ccc(F)c(F)c2)c1=O [I-54] | 8 nM
COCCN1CCC(Nc2cnc3ccc(C#CCNC(=O)c4cccn([C@H](CO)c5cccc(F)c5)c4=O)cc3n2)CC1 [I-55] | 4 nM
O=C(NCC#Cc1ccc2ncc(NC3CCN(C4COC4)CC3)nc2c1)c1cncn(Cc2ccc(F)c(F)c2)c1=O [I-56] | 3 nM
O=C(NCC#Cc1ccc2ncc(NC3CCN(C4COC4)CC3)nc2c1)c1cccn(Cc2ccc(F)c(F)c2)c1=O [I-57] | 9 nM
C[C@@H](c1ccc(F)c(F)c1)n1cccc(C(=O)NCC#Cc2ccc3ncc(NC4CCN(C5COC5)CC4)nc3c2)c1=O [I-58] | 8 nM
O=C(NCC#Cc1ccc2ncc(N[C@H]3CC[C@H](N4CCOCC4)CC3)nc2c1)c1cccn([C@H](CO)c2ccccc2)c1=O [I-59] | 5 nM
O=C(NCC#Cc1ccc2ncc(N[C@H]3CC[C@H](N4CCOCC4)CC3)nc2c1)c1ccnn(Cc2ccc(F)c(F)c2)c1=O [I-60] | 7 nM
O=C(NCC#Cc1ccc2ncc(N[C@H]3CC[C@H](N4CCN(CC5CC5)CC4)CC3)nc2c1)c1cccn([C@H](CO)c2cccc(F)c2)c1=O [I-61] | 2 nM
O=C(NCC#Cc1ccc2ncc(N[C@H]3CC[C@H](N4CCN(CC5CC5)CC4)CC3)nc2c1)c1ccnn(Cc2ccc(F)c(F)c2)c1=O [I-62] | 2 nM
O=C(NCC#Cc1ccc2ncc(NC3CCN(C4COC4)CC3)nc2c1)c1cccn([C@H](CO)c2cccc(F)c2)c1=O [I-63] | 4 nM
O=C(NCC#Cc1ccc2ncc(N[C@H]3CC[C@H](N4CCOCC4)CC3)nc2c1)c1cccn([C@H](CO)c2cccc(F)c2)c1=O [I-64] | 5 nM
O=C(NCC#Cc1ccc2ncc(CC3CCNCC3)nc2c1)c1cncn(Cc2ccc(F)c(F)c2)c1=O [I-66] | 654 nM
CN1CCC(Cc2cnc3ccc(C#CCNC(=O)c4cncn(Cc5ccc(F)c(F)c5)c4=O)cc3n2)CC1 [I-67] | 940 nM
CC(C)=Cc1cnc2ccc(C#CCNC(=O)c3cncn(Cc4ccc(F)c(F)c4)c3=O)cc2n1 [I-68] | 233 nM
